How the values were obtained:
[1] = target: T1, Phosphatidylinositol 4,5-bisphosphate 3-kinase catalytic subunit delta isoform (Homo sapiens, UniProt O00329); test: Inhibition of PI3K p110delta (unknown origin) using lipid substrate after 40 mins by kinase-Glo assay
T1 sequence (O00329 whole entry): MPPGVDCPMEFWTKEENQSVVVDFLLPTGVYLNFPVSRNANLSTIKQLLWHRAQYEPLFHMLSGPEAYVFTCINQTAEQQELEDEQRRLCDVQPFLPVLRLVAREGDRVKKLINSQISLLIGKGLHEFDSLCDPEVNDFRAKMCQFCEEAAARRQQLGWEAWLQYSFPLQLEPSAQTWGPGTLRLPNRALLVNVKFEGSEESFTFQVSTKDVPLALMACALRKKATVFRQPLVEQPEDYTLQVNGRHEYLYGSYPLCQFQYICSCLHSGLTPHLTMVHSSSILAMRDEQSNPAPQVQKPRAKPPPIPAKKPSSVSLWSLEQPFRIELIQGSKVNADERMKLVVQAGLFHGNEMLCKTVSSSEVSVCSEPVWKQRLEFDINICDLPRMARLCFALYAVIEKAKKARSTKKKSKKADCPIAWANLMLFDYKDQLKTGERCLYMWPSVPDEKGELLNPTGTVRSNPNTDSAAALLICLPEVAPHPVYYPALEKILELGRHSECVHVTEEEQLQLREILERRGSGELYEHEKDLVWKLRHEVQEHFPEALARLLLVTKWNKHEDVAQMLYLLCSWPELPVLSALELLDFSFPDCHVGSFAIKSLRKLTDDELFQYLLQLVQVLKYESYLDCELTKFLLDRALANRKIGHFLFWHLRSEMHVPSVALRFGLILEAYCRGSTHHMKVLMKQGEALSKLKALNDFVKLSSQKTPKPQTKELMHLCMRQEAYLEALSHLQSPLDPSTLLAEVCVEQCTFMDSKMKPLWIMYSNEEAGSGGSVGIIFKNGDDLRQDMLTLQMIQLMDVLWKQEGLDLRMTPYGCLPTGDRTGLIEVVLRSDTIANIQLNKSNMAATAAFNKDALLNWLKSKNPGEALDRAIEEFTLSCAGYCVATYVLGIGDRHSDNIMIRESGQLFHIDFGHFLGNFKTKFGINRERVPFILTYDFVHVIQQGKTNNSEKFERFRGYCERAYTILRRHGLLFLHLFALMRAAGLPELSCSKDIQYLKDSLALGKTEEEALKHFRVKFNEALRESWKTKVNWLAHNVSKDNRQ

[2] = target: T2, Phosphatidylinositol 4,5-bisphosphate 3-kinase catalytic subunit delta isoform (Homo sapiens) (UniProt O00329); test: Inhibition of PI3K p110delta (unknown origin) at 100 nM using lipid substrate after 40 mins by kinase-Glo assay relative to control
T2 sequence (whole entry): T1 sequence (O00329 whole entry)

[3] = target: T1, Phosphatidylinositol 4,5-bisphosphate 3-kinase catalytic subunit delta isoform; test: Inhibition of PI3Kdelta (unknown origin)
[4] = Cmax in Sprague-Dawley rat at 3 mg/kg, po by LC-MS/MS analysis; type: ADME, organism-based; set-up: dose 3 mg/kg, route oral; settings: in vivo
[5] = test system: Raji; test: cells; type: functional, cell-based; settings: Homo sapiens, 72 h
Description: Antiproliferative activity against human Raji cells after 72 hrs by MTT assay

[6] = test system: Ramos; test: cells; type: functional, cell-based; settings: Homo sapiens, 72 h
Description: Antiproliferative activity against human Ramos cells after 72 hrs by MTT assay

[7] = Oral bioavailability in Sprague-Dawley rat at 3 mg/kg by LC-MS/MS analysis; type: ADME, organism-based; settings: in vivo
[8] = AUC in Sprague-Dawley rat at 3 mg/kg, po by LC-MS/MS analysis; type: ADME, organism-based; settings: in vivo
[9] = test system: SU-DHL-6; test: Antiproliferative activity against human SUDHL6 cells after 72 hrs by CCK8 assay; type: functional, cell-based; settings: SU-DHL-6, 72 h
[10] = test system: RPMI-8226; test: Antiproliferative activity against human RPMI8226 cells after 72 hrs by MTT assay; type: functional, cell-based; settings: RPMI-8226, 72 h
[11] = target: Phosphatidylinositol 4,5-bisphosphate 3-kinase catalytic subunit alpha isoform (Homo sapiens, UniProt P42336); test: Inhibition of PI3K p110alpha (unknown origin) using lipid substrate after 40 mins by kinase-Glo assay
Chain of Phosphatidylinositol 4,5-bisphosphate 3-kinase catalytic subunit alpha isoform (P42336 whole entry, canonical isoform): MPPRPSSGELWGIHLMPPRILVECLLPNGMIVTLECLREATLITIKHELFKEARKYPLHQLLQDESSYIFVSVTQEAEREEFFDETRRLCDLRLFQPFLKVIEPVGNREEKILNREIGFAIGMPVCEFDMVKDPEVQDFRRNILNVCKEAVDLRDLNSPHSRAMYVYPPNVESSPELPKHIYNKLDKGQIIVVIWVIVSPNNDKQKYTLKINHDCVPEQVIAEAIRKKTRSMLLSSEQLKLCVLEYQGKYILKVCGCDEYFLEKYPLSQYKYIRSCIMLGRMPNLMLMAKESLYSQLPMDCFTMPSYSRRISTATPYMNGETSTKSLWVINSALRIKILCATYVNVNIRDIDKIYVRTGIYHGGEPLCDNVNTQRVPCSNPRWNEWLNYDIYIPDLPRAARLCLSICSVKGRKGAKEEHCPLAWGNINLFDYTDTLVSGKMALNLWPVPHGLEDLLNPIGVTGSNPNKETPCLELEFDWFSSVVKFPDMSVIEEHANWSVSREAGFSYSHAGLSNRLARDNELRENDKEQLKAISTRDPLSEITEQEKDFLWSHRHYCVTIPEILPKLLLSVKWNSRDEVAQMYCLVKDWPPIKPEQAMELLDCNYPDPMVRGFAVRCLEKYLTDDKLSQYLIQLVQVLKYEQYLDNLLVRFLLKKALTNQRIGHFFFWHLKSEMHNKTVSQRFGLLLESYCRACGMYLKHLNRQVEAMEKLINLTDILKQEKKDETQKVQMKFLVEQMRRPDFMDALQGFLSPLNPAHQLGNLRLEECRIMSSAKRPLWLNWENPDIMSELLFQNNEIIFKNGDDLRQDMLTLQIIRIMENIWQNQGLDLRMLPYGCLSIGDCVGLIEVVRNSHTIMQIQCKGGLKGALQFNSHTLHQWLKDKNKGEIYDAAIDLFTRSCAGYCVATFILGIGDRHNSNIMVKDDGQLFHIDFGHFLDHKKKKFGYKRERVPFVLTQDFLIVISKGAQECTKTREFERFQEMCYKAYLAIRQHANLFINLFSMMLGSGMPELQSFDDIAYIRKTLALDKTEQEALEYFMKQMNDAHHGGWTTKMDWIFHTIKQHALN

[12] = target: Phosphatidylinositol 4,5-bisphosphate 3-kinase catalytic subunit beta isoform (Homo sapiens, UniProt P42338); test: Inhibition of PI3K p110beta (unknown origin) using lipid substrate after 40 mins by kinase-Glo assay
Chain of Phosphatidylinositol 4,5-bisphosphate 3-kinase catalytic subunit beta isoform (P42338 whole entry, canonical isoform): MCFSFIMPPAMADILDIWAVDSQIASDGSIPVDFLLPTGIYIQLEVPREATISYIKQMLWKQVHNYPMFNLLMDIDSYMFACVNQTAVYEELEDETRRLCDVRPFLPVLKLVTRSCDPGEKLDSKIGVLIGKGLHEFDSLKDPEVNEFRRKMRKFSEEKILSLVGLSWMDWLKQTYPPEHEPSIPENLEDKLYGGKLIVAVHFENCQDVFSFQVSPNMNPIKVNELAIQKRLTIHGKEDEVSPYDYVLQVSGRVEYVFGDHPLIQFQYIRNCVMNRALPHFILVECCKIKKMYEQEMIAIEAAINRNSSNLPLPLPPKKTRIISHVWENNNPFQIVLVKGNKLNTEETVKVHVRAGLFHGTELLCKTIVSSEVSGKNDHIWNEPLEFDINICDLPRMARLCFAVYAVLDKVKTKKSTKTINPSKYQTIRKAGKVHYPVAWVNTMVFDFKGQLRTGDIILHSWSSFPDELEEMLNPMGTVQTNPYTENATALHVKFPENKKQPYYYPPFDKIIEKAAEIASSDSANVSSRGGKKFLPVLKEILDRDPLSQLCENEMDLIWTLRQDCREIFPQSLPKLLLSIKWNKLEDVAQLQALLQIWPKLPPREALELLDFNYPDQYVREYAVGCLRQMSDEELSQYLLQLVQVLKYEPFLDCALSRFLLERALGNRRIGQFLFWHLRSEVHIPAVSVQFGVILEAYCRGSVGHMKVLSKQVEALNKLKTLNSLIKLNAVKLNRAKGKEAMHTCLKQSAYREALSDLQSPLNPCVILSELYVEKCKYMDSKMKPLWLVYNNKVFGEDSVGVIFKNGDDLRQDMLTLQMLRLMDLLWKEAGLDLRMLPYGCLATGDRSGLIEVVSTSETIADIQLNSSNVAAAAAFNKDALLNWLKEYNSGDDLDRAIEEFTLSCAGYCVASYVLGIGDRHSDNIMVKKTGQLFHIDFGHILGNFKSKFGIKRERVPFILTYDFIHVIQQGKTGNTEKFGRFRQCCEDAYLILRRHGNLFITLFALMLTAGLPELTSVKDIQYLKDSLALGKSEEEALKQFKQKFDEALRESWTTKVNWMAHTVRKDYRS

[13] = target: Phosphatidylinositol 4,5-bisphosphate 3-kinase catalytic subunit gamma isoform (Homo sapiens, UniProt P48736); test: Inhibition of PI3K p110gamma (unknown origin) using lipid substrate after 40 mins by kinase-Glo assay
Chain of Phosphatidylinositol 4,5-bisphosphate 3-kinase catalytic subunit gamma isoform (P48736 whole entry, canonical isoform): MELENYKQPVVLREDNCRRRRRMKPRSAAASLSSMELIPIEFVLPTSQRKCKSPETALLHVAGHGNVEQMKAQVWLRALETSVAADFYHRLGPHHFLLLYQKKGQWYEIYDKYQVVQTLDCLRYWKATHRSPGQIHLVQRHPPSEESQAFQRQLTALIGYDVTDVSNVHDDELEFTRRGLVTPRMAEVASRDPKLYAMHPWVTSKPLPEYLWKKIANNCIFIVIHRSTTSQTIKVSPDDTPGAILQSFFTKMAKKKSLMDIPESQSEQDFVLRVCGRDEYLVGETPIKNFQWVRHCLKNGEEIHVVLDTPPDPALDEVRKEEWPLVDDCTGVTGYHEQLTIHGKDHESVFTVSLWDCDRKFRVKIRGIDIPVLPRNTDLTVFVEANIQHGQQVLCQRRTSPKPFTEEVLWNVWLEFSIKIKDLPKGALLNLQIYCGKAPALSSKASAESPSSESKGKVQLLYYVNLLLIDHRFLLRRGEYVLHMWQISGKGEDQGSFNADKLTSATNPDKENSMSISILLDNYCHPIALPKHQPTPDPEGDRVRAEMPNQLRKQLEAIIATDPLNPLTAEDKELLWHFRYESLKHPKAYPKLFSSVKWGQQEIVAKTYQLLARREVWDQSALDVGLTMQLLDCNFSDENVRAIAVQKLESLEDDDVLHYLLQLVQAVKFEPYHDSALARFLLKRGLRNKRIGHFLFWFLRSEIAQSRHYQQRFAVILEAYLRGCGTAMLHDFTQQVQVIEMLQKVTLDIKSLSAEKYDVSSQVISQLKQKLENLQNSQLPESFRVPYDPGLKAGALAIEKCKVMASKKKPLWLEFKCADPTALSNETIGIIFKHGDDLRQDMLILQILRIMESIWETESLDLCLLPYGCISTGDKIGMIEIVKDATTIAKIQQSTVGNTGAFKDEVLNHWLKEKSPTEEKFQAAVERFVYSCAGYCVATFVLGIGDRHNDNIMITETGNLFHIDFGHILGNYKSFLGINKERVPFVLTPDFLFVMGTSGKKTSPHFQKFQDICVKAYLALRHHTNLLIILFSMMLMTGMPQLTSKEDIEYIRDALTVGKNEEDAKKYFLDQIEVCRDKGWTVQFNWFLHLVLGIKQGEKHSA

[14] = species on record: Homo sapiens; test: Selectivity ratio of IC50 for PI3K p110alpha (unknown origin) to IC50 for PI3K p110delta (unknown origin)
[15] = Cmax in Sprague-Dawley rat at 10 mg/kg, po by LC-MS/MS analysis; type: ADME, organism-based; set-up: dose 10 mg/kg, route oral; settings: in vivo
[16] = test system: Rattus norvegicus; test: Half life in Sprague-Dawley rat at 10 mg/kg, po by LC-MS/MS analysis; type: ADME, organism-based; settings: in vivo
[17] = test system: Rattus norvegicus; test: Clearance in Sprague-Dawley rat at 10 mg/kg, po by LC-MS/MS analysis; type: ADME, organism-based; settings: in vivo
[18] = test system: Rattus norvegicus; test: Apparent volume of distribution in Sprague-Dawley rat at 10 mg/kg, po by LC-MS/MS analysis; type: ADME, organism-based; settings: in vivo
[19] = species on record: Homo sapiens; test: Selectivity ratio of IC50 for PI3K p110gamma (unknown origin) to IC50 for PI3K p110delta (unknown origin)
[20] = AUC in Sprague-Dawley rat at 10 mg/kg, po by LC-MS/MS analysis; type: ADME, organism-based; settings: in vivo
[21] = species on record: Homo sapiens; test: Selectivity ratio of IC50 for PI3K p110beta (unknown origin) to IC50 for PI3K p110delta (unknown origin)

Compound	IC50 [1] [nM]	inhibition [2] [%]	other results
COc1ccc(-c2ccc3ncnc(N[C@H]4CCN(C(=O)C(C)(C)C)C4)c3c2)cn1		79	
COc1ccc(-c2ccc3ncnc(N[C@H]4CCN(C(=O)c5ccco5)C4)c3c2)cn1	5.5	97	
COc1ccc(-c2ccc3ncnc(N[C@H]4CCN(C(=O)c5ccccc5)C4)c3c2)cn1	3	87	
NC(=O)c1cc(-c2ccc3ncnc(-c4cccc(C(=O)NCCN5CCOCC5)c4)c3c2)ccc1Cl			IC50 [3]: 17 nM
COc1ccc(-c2ccc3ncnc(N[C@H]4CCN(C(=O)C5CCOCC5)C4)c3c2)cn1	3.4	97	
CC(C)(C)OC(=O)N1CC[C@H](Nc2ncnc3ccc(-c4ccc(N)nc4)cc23)C1		17	
COc1ccc(-c2ccc3ncnc(N[C@H]4CCN(C(=O)CC(C)(C)C)C4)c3c2)cn1	4.6	94	
COc1ccc(-c2ccc3ncnc(N[C@H]4CCN(C(=O)Cc5ccccc5)C4)c3c2)cn1		79	
O=C(CCCCCCC(=O)Nc1ccccc1)NO [VORINOSTAT]			IC50 [10]: 660 nM
COc1ccc(-c2ccc3ncnc(N[C@H]4CCN(C(=O)OC(C)(C)C)C4)c3c2)cn1	8.1	91	
COc1ncc(-c2ccc3ncnc(N[C@H]4CCN(C(=O)C5CCOCC5)C4)c3c2)cc1[N+](=O)[O-]	3.1	99	IC50 [5]: 1480 nM; IC50 [6]: 780 nM; IC50 [11]: 26.7 nM; IC50 [9]: 5970 nM; IC50 [10]: 2710 nM; IC50 [12]: 585 nM; IC50 [13]: 199 nM
COc1ncc(-c2ccc3ncnc(N[C@H]4CCN(C(=O)OC(C)(C)C)C4)c3c2)cc1[N+](=O)[O-]		51	
COc1ccc(-c2ccc3ncnc(N[C@@H]4CCN(C(=O)C5CCOCC5)C4)c3c2)cn1		46	
C=CC(=O)N1CC[C@H](Nc2ncnc3ccc(-c4ccc(OC)nc4)cc23)C1		0	
COc1ccc(-c2ccc3ncnc(N[C@H]4CCNC4)c3c2)cn1		38	

Continued, in another order:

IC50 [1] [nM]	inhibition [2] [%]	Compound	other results
2.9	85	COc1ccc(-c2ccc3ncnc(N[C@H]4CCN(C(=O)C5CCCCC5)C4)c3c2)cn1	
	2	CC(C)(C)OC(=O)N1CC[C@H](Nc2ncnc3ccc(-c4ccc(OC(F)(F)F)cc4)cc23)C1	
5.5	97	COc1ncc(-c2ccc3ncnc(N[C@H]4CCN(C(=O)C5CC5)C4)c3c2)cc1C#N	
5.2	98	COc1ccc(-c2ccc3ncnc(N[C@H]4CCN(C(=O)C5CCC5)C4)c3c2)cn1	
	96	CC[C@H](Nc1ncnc2[nH]cnc12)c1nc2cccc(F)c2c(=O)n1-c1ccccc1 [IDELALISIB]	Cmax [4]: 129 ng/mL; IC50 [5]: 9950 nM; IC50 [6]: > 10000 nM; bioavailability [7]: 39%; AUC [8]: 422 ng·h/mL; IC50 [9]: 650 nM; IC50 [10]: 5490 nM
	74	COc1ccc(-c2ccc3ncnc(N[C@H]4CCN(C(=O)OC(C)(C)C)C4)c3c2)cc1C(N)=O	
18.7	88	COc1ncc(-c2ccc3ncnc(N[C@H]4CCN(C(=O)OC(C)(C)C)C4)c3c2)cc1C#N	
4.4	97	COc1ccc(-c2ccc3ncnc(N[C@H]4CCN(C(=O)C5CCCC5)C4)c3c2)cn1	
13.5	83	COc1ccc(-c2ccc3ncnc(N[C@H]4CCN(S(=O)(=O)C5CC5)C4)c3c2)cn1	
7.8	92	COc1ccc(-c2ccc3ncnc(N[C@H]4CCN(C(=O)C5CCOCC5)C4)c3c2)cc1C(N)=O	
2.7	99	COc1ncc(-c2ccc3ncnc(N[C@H]4CCN(C(=O)C5CCOCC5)C4)c3c2)cc1C#N	Ratio IC50 [14]: 10; Cmax [15]: 664 ng/mL; IC50 [5]: > 10000 nM; t1/2 [16]: 2.99 h; IC50 [6]: 570 nM; CL [17]: 2.4 L/h/kg; IC50 [11]: 25.6 nM; IC50 [9]: 4550 nM; Vz [18]: 113 L/kg; IC50 [10]: 4340 nM; Ratio IC50 [19]: 65; AUC [20]: 524 ng·h/mL; IC50 [12]: 264 nM; IC50 [13]: 174 nM; Ratio IC50 [21]: 100
4.5	97	COc1ccc(-c2ccc3ncnc(N[C@H]4CCN(C(=O)C5CC5)C4)c3c2)cn1	IC50 [5]: 2130 nM; IC50 [6]: 520 nM; IC50 [11]: 25.4 nM; IC50 [9]: 500 nM; IC50 [10]: 1460 nM; IC50 [12]: 220 nM; IC50 [13]: 224 nM
	44	CC(C)(C)OC(=O)N1CC[C@H](Nc2ncnc3ccc(-c4cnc(N)nc4)cc23)C1	
	84	COc1ccc(-c2ccc3ncnc(N[C@H]4CCN(C(=O)C5CC5)C4)c3c2)cc1C(N)=O	
	13	O=C(C1CC1)N1CC[C@H](Nc2ncnc3ccc(-c4ccc(OC(F)(F)F)cc4)cc23)C1	
	82	COc1cc(C(N)=O)cc(-c2ccc3ncnc(N[C@H]4CCN(C(=O)OC(C)(C)C)C4)c3c2)c1	
	0	COc1ccc(-c2ccc3ncnc(N[C@@H]4CCN(C(=O)OC(C)(C)C)C4)c3c2)cn1	
	79	COc1ccc(-c2ccc3ncnc(N[C@H]4CCN(C(C)=O)C4)c3c2)cn1	

Source: ChEMBL document CHEMBL4219144, “Novel 6-aryl substituted 4-pyrrolidineaminoquinazoline derivatives as potent phosphoinositide 3-kinase delta (PI3Kδ) inhibitors” (Bioorg Med Chem, 2018)
